The subject of series [1] is Plasmodium falciparum. In words: NOVARTIS: Inhibition of Plasmodium falciparum W2 (drug-resistant) proliferation in erythrocyte-based infection assay. The series is classed as functional, organism-based. The note with it: Plasmodium falciparum, W2; read-out: EC50.
In series [2] the test system is Plasmodium falciparum. In words: NOVARTIS: Inhibition of Plasmodium falciparum 3D7 (drug-susceptible) proliferation in erythrocyte-based infection assay. The series is classed as functional, organism-based. The following applies: Plasmodium falciparum, 3D7.
The nature of series [3]: NOVARTIS: Cytotoxicity against human hepatocellular carcinoma cell line (Huh7). It is filed as toxicity, cell-based, Huh-7. The note with it: Huh7 cells (hepatocellular carcinoma cell line).

In the case of `Nc1nc(N)c2cc(S(=O)(=O)c3ccc4ccccc4c3)ccc2n1`, the values for the 50% effective concentration (EC50) in the series on Plasmodium falciparum [1] and with Plasmodium falciparum [2] were 1710 nM and 97.3 nM, respectively. For the same molecule, the midpoint of cytotoxicity in series [3], the CC50, lay at 49500 nM.
On to `Oc1cccc2ccc(Nc3ccccn3)nc12`, for which the concentration for a half-maximal effect (EC50) in the series on Plasmodium falciparum [1] was 302 nM; in the series with Plasmodium falciparum [2], 679 nM. In addition, half-maximal cytotoxicity in series [3] (CC50) was put at 8870 nM.
The corresponding values for `CN(Cc1ccccc1)C(=O)CCNS(=O)(=O)c1cc(Br)cnc1N` are 355 nM, 614 nM and greater than 10000 nM.
The corresponding values for `CCOC(=O)c1c(NC(C)=O)sc2c1CCN(C(C)C)C2` are 3410 nM, 1560 nM and greater than 100000 nM.
The corresponding values for `N=C1NC(=O)/C(=C/C=C/c2ccc([N+](=O)[O-])o2)S1` are 592 nM, 1080 nM and 17100 nM.
`Cc1cc(Nc2cccc(C(F)(F)F)c2)nc(NCc2ccccc2)n1`: the concentration for a half-maximal effect (EC50) in the series with Plasmodium falciparum [1] is 553 nM; in the series on Plasmodium falciparum [2] it was 178 nM. In series [3], this molecule registered a half-maximal cytotoxic concentration (CC50) of 15600 nM.
The corresponding values for `CCCCCc1ccc(C(=O)NCCCCNc2ccnc3cc(Cl)ccc23)cc1` are 353 nM, 386 nM and greater than 10000 nM.
Regarding `CCCn1c(=N)c(C(=O)NC(C)c2ccccc2)cc2c(=O)n3cccc(C)c3nc21` (stereo not given), the EC50 amounted to 3530 nM in the series with Plasmodium falciparum [1] and 1650 nM with Plasmodium falciparum [2]. This molecule also gave a half-maximal cytotoxic concentration (CC50) in series [3] greater than 100000 nM.
Regarding `COc1cc(OC)cc(C(=O)N(CCCC(C)Nc2cc(OC)cc3cccnc23)Cc2ccc(Cl)cc2)c1` (stereo not given), the EC50 in the series on Plasmodium falciparum [1] was 348 nM; in the series on Plasmodium falciparum [2] it was greater than 439 nM. Besides, the midpoint of cytotoxicity in series [3], the CC50, lay at 9860 nM.
For the molecule `O=C(CSc1ccc2nnc(-c3cccs3)n2n1)Nc1ccccc1`, the results for the half-maximal effective concentration (EC50) in the series on Plasmodium falciparum [1] and in the series on Plasmodium falciparum [2] were greater than 3470 nM and 1400 nM, respectively. Also, the CC50 in series [3] was greater than 100000 nM.
The corresponding values for `Cc1cc(Nc2ccc(C(=O)n3ccnc3)cc2)n2ncnc2n1` are greater than 347 nM, greater than 1250 nM and greater than 10000 nM.
Consider `COc1ccc(CNc2ncnc3c2[nH]c2cc(OC)ccc23)cc1`, for which the EC50 amounted to 856 nM in the series on Plasmodium falciparum [1] and 958 nM in the series on Plasmodium falciparum [2]. The same molecule yielded a half-maximal cytotoxic concentration (CC50) in series [3] of 24100 nM.
The corresponding values for `COc1ccc(NC(=O)CCn2c(=S)oc3ccccc32)c([N+](=O)[O-])c1` are greater than 346 nM, greater than 1250 nM and greater than 10000 nM.
On to `Cc1cc(C)cc(C(=O)Nc2c3c(nn2-c2cccc(C)c2C)CS(=O)(=O)C3)c1`, for which the EC50 with Plasmodium falciparum [1] stood at 358 nM; in the series with Plasmodium falciparum [2], 329 nM. Besides, the CC50 in series [3] was greater than 10000 nM.
The corresponding values for `O=C(/C=C/c1ccccn1)NCC1Cc2cc(-c3cnccn3)ccc2O1` (stereo not given) are greater than 356 nM, greater than 1250 nM and greater than 10000 nM.
The corresponding values for `CC(C)N(CC(=O)Nc1cc(C(C)(C)C)nn1-c1ccc(Cl)c(Cl)c1)C(=O)c1ccc(Cl)c(Cl)c1` are 356 nM, 1010 nM and greater than 10000 nM.
The corresponding values for `COc1ccc(CN2CSC3=C(C#N)C(c4cccc(OC)c4)CC(=O)N3C2)cc1` (stereo not given) are 3550 nM, 3700 nM and greater than 100000 nM.
Take `CCCCCCCCNC(=O)C1CC1c1ccccc1` (stereo not given): the results for the EC50 in the series on Plasmodium falciparum [1] and in the series with Plasmodium falciparum [2] were 3490 nM and greater than 10500 nM, respectively. Moreover, the 50% cytotoxic concentration (CC50) in series [3] was greater than 100000 nM.
The corresponding values for `CCC(Oc1ccc(C(C)(C)CC)cc1C(C)(C)CC)C(=O)Nc1ccc(Cl)c([N+](=O)[O-])c1` (stereo not given) are 349 nM, 275 nM and greater than 10000 nM.
The corresponding values for `COc1cc(C(=O)NC(c2ccccc2Cl)c2cc(Cl)c3cccnc3c2O)cc(OC)c1OC` (stereo not given) are 3470 nM, 6150 nM and greater than 100000 nM.
The corresponding values for `Cc1cc(Nc2cccc(Cl)c2)nc(NCc2ccccc2)n1` are 607 nM, 51 nM and 17100 nM.
`c1ccc2nc3c(nnc4ccccc43)nc2c1`: the half-maximal effective concentration (EC50) with Plasmodium falciparum [1] was determined as 996 nM; with Plasmodium falciparum [2] it was 1100 nM. This molecule gave a 50% cytotoxic concentration (CC50) in series [3] of 28500 nM.
The corresponding values for `O=C(Nc1ccc(Oc2ccccc2)cc1)NC(CN1CCCC1)c1ccccc1` (stereo not given) are 476 nM, 355 nM and 13600 nM.
The corresponding values for `O=C(Nc1ccc(-c2noc(CCc3ccccc3)n2)cc1)c1cccs1` are 554 nM, 903 nM and 15700 nM.
The corresponding values for `COc1cccc(CNc2ncnc3sc(C(=O)NCC4COCCO4)c(C)c23)c1OC` (stereo not given) are 3500 nM, greater than 12500 nM and greater than 100000 nM.
For the molecule `COc1ccc(C(=O)C(C#N)=CNC2CCN(Cc3ccccc3)CC2)cc1`, the results for the half-maximal effective concentration (EC50) in the series with Plasmodium falciparum [1] and in the series with Plasmodium falciparum [2] were 875 nM and 177 nM, respectively. In series [3], this molecule showed a CC50 of 24800 nM.
Consider `COCCN(C(C)C(=O)NC(CN1CCCC1)c1ccccc1)S(=O)(=O)c1c(C)noc1C` (stereo not given), for which the EC50 with Plasmodium falciparum [1] stood at 406 nM; in the series with Plasmodium falciparum [2], 964 nM. In series [3], the 50% cytotoxic concentration (CC50) is greater than 11900 nM.
The corresponding values for `COc1ccc(NC(=O)C2=C(C)NC(=S)NC2c2ccc(O)cc2)cc1` (stereo not given) are 342 nM, 1420 nM and greater than 10000 nM.
The corresponding values for `Cc1cccc(NC(=O)c2ccc(NCCCC3CCCCCC3)c([N+](=O)[O-])c2)c1` are 643 nM, 441 nM and 18800 nM.
Take `CN(CCCNc1ccnc2cc(Cl)ccc12)C(=O)C1C[C@H]1c1ccccc1` (stereo not given in full): the EC50 in the series on Plasmodium falciparum [1] was found to be 411 nM; in the series with Plasmodium falciparum [2], 76.1 nM. In series [3], this molecule displayed a CC50 greater than 11600 nM.
As to `Clc1ccccc1C[n+]1cc(-c2ccccc2)n2c1CCC2`, the values for the EC50 with Plasmodium falciparum [1] and in the series on Plasmodium falciparum [2] were 3470 nM and 2330 nM, respectively. Further, in series [3], the half-maximal cytotoxic concentration (CC50) was greater than 100000 nM.
The corresponding values for `O=C(Oc1ccccc1-c1nc2ccccn2c1NC1CCCCC1)c1ccc([N+](=O)[O-])cc1Cl` are 352 nM, greater than 1250 nM and greater than 10000 nM.
The corresponding values for `COc1cccc(C(=O)N(C)CCCNc2ccnc3cc(Cl)ccc23)c1` are 208 nM, 390 nM and 5930 nM.
On to `COc1ccc2[nH]c3c(NCCN4CCCCC4)ncnc3c2c1`, for which the EC50 in the series with Plasmodium falciparum [1] came to 976 nM; in the series with Plasmodium falciparum [2], 785 nM. In addition, in series [3], half-maximal cytotoxicity (CC50) was put at 28600 nM.
Regarding `Clc1ccc(-c2cn3c([n+]2-c2ccccc2)CCC3)cc1`, the values for the EC50 in the series on Plasmodium falciparum [1] and with Plasmodium falciparum [2] were 3510 nM and 257 nM, respectively. For the same molecule, in series [3], the 50% cytotoxic concentration (CC50) was greater than 100000 nM.
The corresponding values for `CCOc1ccc(C2N(C)c3ccccc3N2C)cc1` are 344 nM, 250 nM and greater than 10000 nM.
As to `N#Cc1cc2[nH]c3ccccc3c2n(-c2ccc([N+](=O)[O-])cc2)c1=N`, the EC50 in the series on Plasmodium falciparum [1] worked out at 3440 nM; with Plasmodium falciparum [2], 530 nM. This molecule also registered a CC50 in series [3] greater than 100000 nM.
The corresponding values for `COc1cccc2c1C(=O)c1c(O)c3c(c(O)c1C2=O)CC(O)(C(=O)CO)CC3OC1CC(N)C(O)C(C)O1` (stereo not given) are 180 nM, 169 nM and 5250 nM.
The corresponding values for `Cc1ccc(NC(=O)CSc2nc3cc(C(=O)NCCCOC(C)C)ccc3c(=O)n2Cc2ccco2)cc1Cl` are 340 nM, 1940 nM and greater than 10000 nM.
The corresponding values for `CCCCCCN(C(=O)c1ccc(C(C)(C)C)cc1)C(CC)c1nc2ccccc2c(=O)n1-c1ccccc1OC` (stereo not given) are 348 nM, 356 nM and greater than 10000 nM.
`CC(=O)Nc1nc(-c2ccc(F)cc2)cs1`: the results for the EC50 in the series with Plasmodium falciparum [1] and with Plasmodium falciparum [2] were 3520 nM and greater than 12500 nM, respectively. The same molecule came in with a 50% cytotoxic concentration (CC50) in series [3] greater than 100000 nM.
Turning to `COCC(=O)N(C)CCCNc1ccnc2cc(Cl)ccc12`, the results for the EC50 in the series with Plasmodium falciparum [1] and in the series with Plasmodium falciparum [2] were 346 nM and 156 nM, respectively. In series [3], this molecule registered a half-maximal cytotoxic concentration (CC50) greater than 10000 nM.
The corresponding values for `CCC1CCCCN1C(=O)c1cc(-c2ccccc2OC)on1` (stereo not given) are 340 nM, greater than 598 nM and greater than 10000 nM.
The corresponding values for `CC(=O)Nc1ccccc1OC(F)(F)F` are 468 nM, greater than 349 nM and greater than 13200 nM.
The corresponding values for `Cc1cc(Nc2cccc(C(F)(F)F)c2)nc2ccc(NC(=O)c3cncc(Br)c3)cc12` are 3000 nM, 2450 nM and greater than 84400 nM.
Regarding `C[n+]1c2n(c3ccccc31)N=C(c1ccccc1)C[Se]2`, the values for the EC50 in the series with Plasmodium falciparum [1] and with Plasmodium falciparum [2] were 832 nM and 471 nM, respectively. The molecule also yielded a CC50 in series [3] of 23600 nM.
`O=C(NNc1cccc(F)n1)C(F)(F)F`: the 50% effective concentration (EC50) with Plasmodium falciparum [1] was determined as 340 nM; in the series on Plasmodium falciparum [2], 670 nM. For the same molecule, the CC50 in series [3] was greater than 10000 nM.
For the molecule `O=C(CCl)NCCNc1ncc(C(F)(F)F)cc1Cl`, the EC50 worked out at 612 nM in the series on Plasmodium falciparum [1] and 453 nM in the series with Plasmodium falciparum [2]. The CC50 in series [3] amounted to 17800 nM.
On to `Brc1ccc(Nc2nc(NCC3CCCO3)c3ccccc3n2)cc1` (stereo not given), for which the EC50 was found to be 349 nM with Plasmodium falciparum [1] and 468 nM with Plasmodium falciparum [2]. Also, it took 9780 nM to reach half-maximal cytotoxicity in series [3] (CC50).
`COC(=O)c1sccc1S(=O)(=O)N1CCCC(c2[nH]ncc2-c2ccccc2)C1` (stereo not given): the EC50 in the series with Plasmodium falciparum [1] came to 3440 nM; with Plasmodium falciparum [2], 3030 nM. In addition, the cytotoxic concentration (CC50) in series [3] was greater than 100000 nM.
The corresponding values for `CCC(C)(O)C(=O)O[C@H]1C(=O)OC2CC3C(C)=C[C@H](O)[C@@H](O)[C@]3(C)C3C24CO[C@]3(O)[C@H](O)[C@H](C)C14` (stereo not given in full) are 215 nM, 227 nM and greater than 6250 nM.
The corresponding values for `CCC(CO)Nc1nccnc1-c1ccccc1Oc1ccccc1` (stereo not given) are 3560 nM, 4540 nM and greater than 100000 nM.
The corresponding values for `CN1c2ccccc2N(C)C1c1ccco1` are 356 nM, 288 nM and greater than 10000 nM.
Turning to `CCC(C)NC(=O)CN(c1cc(OC)ccc1OC)S(C)(=O)=O` (stereo not given), the EC50 was 349 nM with Plasmodium falciparum [1] and 438 nM with Plasmodium falciparum [2]. The same molecule registered a CC50 in series [3] greater than 10000 nM.
The corresponding values for `O=C(Nc1ccc(NC(=O)c2ccco2)cc1Cl)c1ccccc1` are greater than 348 nM, greater than 1650 nM and greater than 10000 nM.
